Biological target: NADH-ubiquinone oxidoreductase chain 1 (Bos taurus, UniProt P03887)
Test: Inhibition Assay
Source text: Inhibition assay using NADH-ubiquinone oxidoreductase (complex I).

Chain of NADH-ubiquinone oxidoreductase chain 1 (P03887 whole entry): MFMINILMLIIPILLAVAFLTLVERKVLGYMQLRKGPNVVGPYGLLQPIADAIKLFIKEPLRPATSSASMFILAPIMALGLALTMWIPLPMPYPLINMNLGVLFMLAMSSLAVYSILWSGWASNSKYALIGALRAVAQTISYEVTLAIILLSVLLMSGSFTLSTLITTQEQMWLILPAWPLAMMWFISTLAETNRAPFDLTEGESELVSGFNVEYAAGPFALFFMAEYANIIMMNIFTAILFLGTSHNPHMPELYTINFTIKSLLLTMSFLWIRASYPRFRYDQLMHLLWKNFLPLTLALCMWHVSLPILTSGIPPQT

| Compound | IC50 |
| --- | --- |
| O[C@H](CCCCCCCCCc1ccccc1)CN1CCN(C[C@H](O)CCCCCCCCCc2ccccc2)CC1 [Piperazine derivative, 11] | 5.9 nM |
| C[N+]1(C[C@H](O)CCCCCc2ccccc2)CC[N+](C)(C[C@H](O)CCCCCc2ccccc2)CC1 (some centres undefined) [Piperazine derivative, 23] | 4700 nM |
| CCCCCCCCCCC(O)CN1CCN(CC(O)CCCCCCCCCC)CC1 (centres undefined) [Piperazine derivative, 5] | 2.6 nM |
| O[C@H](CCCCCCCc1ccccc1)CN1CCN(C[C@H](O)CCCCCCCc2ccccc2)CC1 [Piperazine derivative, 10] | 1.2 nM |
| c1ccc(CCCCCCCCCN2CCN(CCCCCCCCCc3ccccc3)CC2)cc1 [Piperazine derivative, 20] | 3.6 nM |
| c1ccc(CCCCN2CCN(CCCCc3ccccc3)CC2)cc1 [Piperazine derivative, 21] | 1300 nM |
| N#[N+]Nc1c(F)c(F)c(COCCCCC[C@@H](O)CN2CCN(C[C@H](O)CCCCCOc3ccc(I)cc3)CC2)c(F)c1F [Piperazine derivative, 24] | 1 nM |
| O[C@@H](CCCCCCc1ccccc1)CN1CCN(C[C@@H](O)CCCCCCc2ccccc2)CC1 [Piperazine derivative, 12] | 2.3 nM |
| O[C@H](CCCCCCc1ccccc1)CN1CCN(C[C@H](O)CCCCCCc2ccccc2)CC1 [Piperazine derivative, 9] | 1.7 nM |
| C[N+]1(C[C@H](O)CCCCCc2ccccc2)CCN(C[C@H](O)CCCCCc2ccccc2)CC1 [Piperazine derivative, 22] | 1100 nM |
| CCCCCC(O)CN1CCN(CC(O)CCCCC)CC1 (centres undefined) [Piperazine derivative, 4] | > 22000 nM |
| O[C@H](CCCCCCCc1ccccc1)CN1CCCN(C[C@H](O)CCCCCCCc2ccccc2)CC1 [Piperazine derivative, 13] | 1.7 nM |
| O[C@H](CCCCCCCc1ccccc1)CN1C[C@H]2C[C@@H]1CN2C[C@H](O)CCCCCCCc1ccccc1 [Piperazine derivative, 14] | 2.8 nM |
| O[C@H](CCCCCc1ccccc1)CN1CCN(C[C@H](O)CCCCCc2ccccc2)CC1 [Piperazine derivative, 8] | 12 nM |
| CN(C[C@H](O)CCCCCCCc1ccccc1)[C@H]1CCCC[C@@H]1N(C)C[C@H](O)CCCCCCCc1ccccc1 [Piperazine derivative, 15] | 670 nM |
| CCCCCCCCCCCCCCC(O)CN1CCN(CC(O)CCCCCC)CC1 (centres undefined) [Piperazine derivative, 6] | 26 nM |
| c1ccc(CCCCCCCN2CCN(CCCCCCCc3ccccc3)CC2)cc1 [Piperazine derivative, 18] | 12 nM |
| CCCCCCCCCCCCCCCCC(O)CN1CCN(CC(O)CCCC)CC1 (centres undefined) [Piperazine derivative, 7] | 110 nM |
| c1ccc(CCCCCCCCN2CCN(CCCCCCCCc3ccccc3)CC2)cc1 [Piperazine derivative, 19] | 2.2 nM |

Source: BindingDB's records for doi:10.1021/bi8010362 (Kyoto University, 2008)
